According to patent publication US9504669B2, “Spliceostatin analogs and methods for their preparation” (PFIZER INC., priority 2012, dated 2016):
Counter-ions that a name gives are not always drawn.

Experiments:
Assay type in all cases: cell-based
[1] = test system: MDA-MB-361-DYT2 (breast cancer) cells; assay: In vitro cell assay (MTS cell viability), MDA-MB-361-DYT2; details: 96 h, free compounds (natural products and synthetic analogs); cell viability 96 hours after treatment
Procedure: (§1) Target expressing (BT474 (breast cancer), N87 (gastric cancer), HCC1954 (breast cancer), MDA-MB-361-DYT2 (breast cancer)) or non-expressing (MDA-MB-468) cells were seeded in 96-well cell culture plates for 24 hours before treatment. Cells were treated with 3-fold serially diluted antibody-drug conjugates or free compounds (i.e., no antibody conjugated to the drug) in duplicate at 10 concentrations. Cell viability was determined by CellTiter 96® AQueous One Solution Cell Proliferation MTS Assay (Promega, Madison Wis.) 96 hours after treatment. Relative cell viability was determined as percentage of untreated control. IC50 values were calculated using a four parameter logistic model #203 with XLfit v4.2 (IDBS, Guildford, Surry, UK). The potency ranged upward from 0.0002 nm. Similar procedures and techniques were employed.

[2] = test system: BT474 (breast cancer) cells; assay: In vitro cell assay (MTS cell viability), BT474; details: Homo sapiens, BT-474; free compounds (natural products and synthetic analogs); cell viability 96 hours after treatment
Procedure: as §1

[3] = test system: N87 (gastric cancer) cells; assay: In vitro cell assay (MTS cell viability), N87; details: 96 h, free compounds (natural products and synthetic analogs); cell viability 96 hours after treatment
Procedure: as §1

`CC(=O)O[C@@H](C)/C=C\C(=O)N[C@@H]1C[C@H](C)[C@H](C/C=C(C)/C=C/[C@H]2O[C@H](CC(=O)NCCO)C[C@@]3(CO3)[C@@H]2O)O[C@@H]1C` [#B8, (2S,3Z)-5-{[(2R,3R,5S,6S)-6-{(2E,4E)-5-[(3R,4R,5R,7S)-4-hydroxy-7-{2-[(2-hydroxyethyl)amino]-2-oxoethyl}-1,6-dioxaspiro[2.5]oct-5-yl]-3-methylpenta-2,4-dien-1-yl}-2,5-dimethyltetrahydro-2H-pyran-3-yl]amino}-5-oxopent-3-en-2-yl acetate] was tested, and the IC50 [1] was 25.5 nM, the IC50 [2] was 14.1 nM and the IC50 [3] was 10.7 nM.

For `CC(=O)O[C@@H](C)/C=C\C(=O)N[C@@H]1C[C@H](C)[C@H](C/C=C(C)/C=C/[C@H]2O[C@H](CC(N)=O)C[C@@]3(CO3)[C@@H]2O)O[C@@H]1C` [#B9, (2S,3Z)-5-{[(2R,3R,5S,6S)-6-{(2E,4E)-5-[(3R,4R,5R,7S)-7-(2-amino-2-oxoethyl)-4-hydroxy-1,6-dioxaspiro[2.5]oct-5-yl]-3-methylpenta-2,4-dien-1-yl}-2,5-dimethyltetrahydro-2H-pyran-3-yl]amino}-5-oxopent-3-en-2-yl acetate], the IC50 [1] was 5.26 nM, the IC50 [2] was 3.26 nM and the IC50 [3] was 1.34 nM.

Molecule `CC(=O)O[C@@H](C)/C=C\C(=O)N[C@@H]1C[C@H](C)[C@H](C/C=C(C)/C=C/[C@H]2O[C@H](CC(=O)NCc3ccc(S(N)(=O)=O)cc3)C[C@@]3(CO3)[C@@H]2O)O[C@@H]1C` [#B10, (2S,3Z)-5-{[(2R,3R,5S,6S)-6-{(2E,4E)-5-[(3R,4R,5R,7S)-4-hydroxy-7-{2-oxo-2-[(4-sulfamoylbenzyl)amino]ethyl}-1,6-dioxaspiro[2.5]oct-5-yl]-3-methylpenta-2,4-dien-1-yl}-2,5-dimethyltetrahydro-2H-pyran-3-yl]amino}-5-oxopent-3-en-2-yl acetate] has an IC50 [1] of 77.5 nM, an IC50 [2] of 43.5 nM and an IC50 [3] of 12.1 nM.

`CC(=O)O[C@@H](C)/C=C\C(=O)N[C@@H]1C[C@H](C)[C@H](C/C=C(C)/C=C/[C@H]2O[C@H](CC(=O)NCc3ccc(N)cc3)C[C@@]3(CO3)[C@@H]2O)O[C@@H]1C` [#B11, (2S,3Z)-5-{[(2R,3R,5S,6S)-6-{(2E,4E)-5-[(3R,4R,5R,7S)-7-{2-[(4-aminobenzyl)amino]-2-oxoethyl}-4-hydroxy-1,6-dioxaspiro[2.5]oct-5-yl]-3-methylpenta-2,4-dien-1-yl}-2,5-dimethyltetrahydro-2H-pyran-3-yl]amino}-5-oxopent-3-en-2-yl acetate] showed an IC50 [1] of 6.71 nM, an IC50 [2] of 3.42 nM and an IC50 [3] of 1.61 nM.

`CC(=O)O[C@@H](C)/C=C\C(=O)N[C@@H]1C[C@H](C)[C@H](C/C=C(C)/C=C/[C@H]2O[C@H](CC(=O)N3CCNCC3)C[C@@]3(CO3)[C@@H]2O)O[C@@H]1C` [#B12, (2S,3Z)-5-({(2R,3R,5S,6S)-6-[(2E,4E)-5-{(3R,4R,5R,7S)-4-hydroxy-7-[2-oxo-2-(piperazin-1-yl)ethyl]-1,6-dioxaspiro[2.5]oct-5-yl}-3-methylpenta-2,4-dien-1-yl]-2,5-dimethyltetrahydro-2H-pyran-3-yl}amino)-5-oxopent-3-en-2-yl acetate, acetate salt] showed an IC50 [1] of 87.8 nM, an IC50 [2] of 55.5 nM and an IC50 [3] of 54.6 nM.

For `CC(=O)O[C@@H](C)/C=C\C(=O)N[C@@H]1C[C@H](C)[C@H](C/C=C(C)/C=C/[C@H]2O[C@H](CC(=O)N3CCN(C)CC3)C[C@@]3(CO3)[C@@H]2O)O[C@@H]1C` [#B13, (2S,3Z)-5-({(2R,3R,5S,6S)-6-[(2E,4E)-5-{(3R,4R,5R,7S)-4-hydroxy-7-[2-(4-methylpiperazin-1-yl)-2-oxoethyl]-1,6-dioxaspiro[2.5]oct-5-yl}-3-methylpenta-2,4-dien-1-yl]-2,5-dimethyltetrahydro-2H-pyran-3-yl}amino)-5-oxopent-3-en-2-yl acetate, acetate salt], the IC50 [1] was 1.93 nM, the IC50 [2] was 0.68 nM and the IC50 [3] was 0.99 nM.

Molecule `CC(=O)O[C@@H](C)/C=C\C(=O)N[C@@H]1C[C@H](C)[C@H](C/C=C(C)/C=C/[C@@H]2C[C@]3(CO3)C[C@@H](CC(=O)NO)O2)O[C@@H]1C` [#B22, (2S,3Z)-5-({(2R,3R,5S,6S)-6-[(2E,4E)-5-{(3S,5S,7S)-7-[2-(hydroxyamino)-2-oxoethyl]-1,6-dioxaspiro[2.5]oct-5-yl}-3-methylpenta-2,4-dien-1-yl]-2,5-dimethyltetrahydro-2H-pyran-3-yl}amino)-5-oxopent-3-en-2-yl acetate] has an IC50 [1] of 7.46 nM, an IC50 [2] of 1.76 nM and an IC50 [3] of 4.23 nM.

`CC(/C=C/[C@@H]1C[C@]2(CO2)C[C@@H](CC(N)=O)O1)=C\C[C@@H]1O[C@H](C)[C@H](NC(=O)/C=C\[C@H](C)O)C[C@@H]1C` [#B39, (2Z,4S)—N-[(2R,3R,5S,6S)-6-{(2E,4E)-5-[(3S,5S,7S)-7-(2-amino-2-oxoethyl)-1,6-dioxaspiro[2.5]oct-5-yl]-3-methylpenta-2,4-dien-1-yl}-2,5-dimethyltetrahydro-2H-pyran-3-yl]-4-hydroxypent-2-enamide] showed an IC50 [1] of 7.67 nM, an IC50 [2] of 3.4 nM and an IC50 [3] of 4.65 nM.

`CC(/C=C/[C@@H]1C[C@]2(CO2)C[C@@H](CC(N)=O)O1)=C\C[C@@H]1O[C@H](C)[C@H](NC(=O)/C=C\[C@H](C)OC(=O)N2CCCCC2)C[C@@H]1C` [#B40, (2S,3Z)-5-{[(2R,3R,5S,6S)-6-{(2E,4E)-5-[(3S,5S,7S)-7-(2-amino-2-oxoethyl)-1,6-dioxaspiro[2.5]oct-5-yl]-3-methylpenta-2,4-dien-1-yl}-2,5-dimethyltetrahydro-2H-pyran-3-yl]amino}-5-oxopent-3-en-2-yl piperidine-1-carboxylate] was tested, and the IC50 [1] was 5.84 nM, the IC50 [2] was 1.86 nM and the IC50 [3] was 6.76 nM.

Molecule `COC(=O)C[C@@H]1C[C@@]2(CO2)[C@H](O)[C@@H](/C=C/C(C)=C/C[C@@H]2O[C@H](C)[C@H](NC(=O)/C=C\[C@H](C)OC(C)=O)C[C@@H]2C)O1` [#B55, methyl [(3R,5S,7R,8R)-7-{(1E,3E)-5-[(2S,3S,5R,6R)-5-{[(2Z,4S)-4-(acetyloxy)pent-2-enoyl]amino}-3,6-dimethyltetrahydro-2H-pyran-2-yl]-3-methylpenta-1,3-dien-1-yl}-8-hydroxy-1,6-dioxaspiro[2.5]oct-5-yl]acetate] has an IC50 [1] of 1.26 nM, an IC50 [2] of 0.879 nM and an IC50 [3] of 0.822 nM.

With `CCCNC(=O)C[C@@H]1C[C@@]2(CO2)[C@H](O)[C@@H](/C=C/C(C)=C/C[C@@H]2O[C@H](C)[C@H](NC(=O)/C=C\[C@H](C)OC(=O)C(C)C)C[C@@H]2C)O1` [#B71, (2S,3Z)-5-({(2R,3R,5S,6S)-6-[(2E,4E)-5-{(3R,4R,5R,7S)-4-hydroxy-7-[2-oxo-2-(propylamino)ethyl]-1,6-dioxaspiro[2.5]oct-5-yl}-3-methylpenta-2,4-dien-1-yl]-2,5-dimethyltetrahydro-2H-pyran-3-yl}amino)-5-oxopent-3-en-2-yl 2-methylpropanoate] the IC50 [1] was 1.36 nM, the IC50 [2] was 1.08 nM and the IC50 [3] was 0.451 nM.

Work on `CC(=O)O[C@@H](C)/C=C\C(=O)N[C@@H]1C[C@H](C)[C@H](C/C=C(C)/C=C/[C@H]2O[C@H](CC(=O)N3CCCCC3)C[C@@]3(CO3)[C@@H]2O)O[C@@H]1C` [#B72, (2S,3Z)-5-({(2R,3R,5S,6S)-6-[(2E,4E)-5-{(3R,4R,5R,7S)-4-hydroxy-7-[2-oxo-2-(piperidin-1-yl)ethyl]-1,6-dioxaspiro[2.5]oct-5-yl}-3-methylpenta-2,4-dien-1-yl]-2,5-dimethyltetrahydro-2H-pyran-3-yl}amino)-5-oxopent-3-en-2-yl acetate] yielded an IC50 [1] of 1.16 nM, an IC50 [2] of 0.607 nM and an IC50 [3] of 0.481 nM.

`CC(=O)O[C@@H](C)/C=C\C(=O)N[C@@H]1C[C@H](C)[C@H](C/C=C(C)/C=C/[C@@H]2C[C@]3(CO3)C[C@@H](CC(=O)NC(C)(C)C(=O)O)O2)O[C@@H]1C` [#B79, N-{[(3S,5S,7S)-7-{(1E,3E)-5-[(2S,3S,5R,6R)-5-{[(2Z,4S)-4-(acetyloxy)pent-2-enoyl]amino}-3,6-dimethyltetrahydro-2H-pyran-2-yl]-3-methylpenta-1,3-dien-1-yl}-1,6-dioxaspiro[2.5]oct-5-yl]acetyl}-2-methylalanine] gave an IC50 [1] of 1.31 nM, an IC50 [2] of 0.723 nM and an IC50 [3] of 0.423 nM.

`CSCCN(C)C(=O)C[C@@H]1C[C@@]2(CO2)[C@H](O)[C@@H](/C=C/C(C)=C/C[C@@H]2O[C@H](C)[C@H](NC(=O)/C=C\[C@H](C)OC(C)=O)C[C@@H]2C)O1` [#B82, (2S,3Z)-5-{[(2R,3R,5S,6S)-6-{(2E,4E)-5-[(3R,4R,5R,7S)-4-hydroxy-7-(2-{methyl[2-(methylsulfanyl)ethyl]amino}-2-oxoethyl)-1,6-dioxaspiro[2.5]oct-5-yl]-3-methylpenta-2,4-dien-1-yl}-2,5-dimethyltetrahydro-2H-pyran-3-yl]amino}-5-oxopent-3-en-2-yl acetate] gave an IC50 [1] of 0.251 nM, an IC50 [2] of 0.288 nM and an IC50 [3] of 0.12 nM.

With `CNc1cccc(CNC(=O)C[C@@H]2C[C@@]3(CO3)[C@H](O)[C@@H](/C=C/C(C)=C/C[C@@H]3O[C@H](C)[C@H](NC(=O)/C=C\[C@H](C)OC(C)=O)C[C@@H]3C)O2)c1` [#B83, (2S,3Z)-5-{[(2R,3R,5S,6S)-6-{(2E,4E)-5-[(3R,4R,5R,7S)-4-hydroxy-7-(2-{[3-(methylamino)benzyl]amino}-2-oxoethyl)-1,6-dioxaspiro[2.5]oct-5-yl]-3-methylpenta-2,4-dien-1-yl}-2,5-dimethyltetrahydro-2H-pyran-3-yl]amino}-5-oxopent-3-en-2-yl acetate] the IC50 [1] was 2.59 nM, the IC50 [2] was 1.45 nM and the IC50 [3] was 1.05 nM.
